One series relates to lymphangiogenesis. The settings on record: experimental mouse lymphedema models; cited from earlier work.
For the next series, the system named is K562. Particulars: cited from earlier work.
The subject of the next series is Plasmodium. Particulars: cited from earlier work.
For the next series, the system named is fungi. Particulars: cited from earlier work.
Another series deals with A2780. Particulars: cited from earlier work.
In a further series the test system is LEC. The experiment in a line: Sprouting assay (LEC-coated microcarriers in collagen). It counts as cell-based, human. Particulars: 24 hours. How it is done:
To investigate cell sprouting, cytodex microcarriers were coated with LECs (Schulz et al. (2012) Phenotype-based high-content chemical library screening identifies statins as inhibitors of in vivo lymphangiogenesis. Proc Natl Acad Sci USA 109, E2665-2674). Then, the microcarriers were embedded in a collagen solution and media containing 0.1% DMSO, 20 ng/ml VEGF-A, or different concentrations of the IG extract, its subfractions or iridals were added for 24 hours. The induced sprouts were imaged at 4× magnification (Molecular Devices ImageXpress Micro HCS microscope MD2, Photometrics CoolSNAP HQ camera, Photometrics, Tucson, AZ, USA). Image analysis was performed using ImageJ64 and the number of sprouts per microcarrier was counted and plotted. Three replicates per condition were performed.

For series [1], the system named is guinea pig mesenteric lymphatic vessels. Briefly: Ex vivo lymphatic contractility assay. The source says:
Guinea pigs (7-15 days of age) were killed by decapitation during deep anaesthesia induced by inhalation of isoflurane. The small intestine with its attached mesentery was rapidly dissected and placed in a physiological saline solution (PSS) of the following composition (mM): CaCl2, 2.5; KCl, 5; MgCl2, 2; NaCl, 120; NaHCO3, 25; NaH2PO4, 1; glucose, 11. The pH was maintained at 7.4 by constant bubbling with 95% O2/5% CO2. […]
The organ bath was then mounted on the stage of an inverted microscope and continuously superfused at a flow rate of 3 ml/min with PSS heated to 36° C. […] A custom-written MatLab program detected vessel diameter changes on the video image and recorded them as a function of time, allowing measurement of frequency and amplitude of contractions. Decreases in vessel diameter greater than 50% of the diastolic diameter were counted as contractions. Preparations were allowed a 30 min equilibration period prior to drug application during which pumping was assessed. […] A 5 min control period of contractile activity was recorded prior to a 1 to 5 min application of iripallidal and effects on vessel contraction frequency were assessed during the ten subsequent minutes.

Series [2] deals with cytochrome P450 1A isoenzyme. Particulars: cited from earlier work.

For `CC1=C(/C=C/C(C)=C\C=C\C(C)=C\C(=O)O)C(C)(C)CCC1` [9-cis retinoic acid], the lymphangiogenesis entry in the series on lymphangiogenesis is given as “promote lymphangiogenesis”. Consider `CC(C)=CCC/C(C)=C/CC/C(C)=C/CC[C@@]1(C)[C@H](CCCO)/C(=C(/C)C=O)CC[C@]1(C)O` [Iridal], for which the “activity on human tumor cell line” value in the series on K562 and in the series with A2780 was “interesting activity on two human tumor cell lines” in each case. The antiplasmodial activity result with Plasmodium was “antiplasmodial activity”. For the same compound, the antifungal activity entry in the series on fungi is on record as “no antifungal activity”. As to `CC(C)=CCC/C(C)=C/CC(O)/C(C)=C/CC[C@@]1(C)[C@H](CCCO)/C(=C(\C)C=O)CC[C@]1(C)O` (some centres unmarked) [Iridobelamal A], in the series on LEC, the “Minimal effective concentration in sprouting assay” value (shortened to “Minimal effective concentration”) stood at 3 µM. For the compound `C=C1CC[C@H](C)C(C)(C)[C@@H]1/C=C/C(C)=C/CC[C@@]1(CO)[C@H](CCCO)/C(=C(/C)C=O)CC[C@]1(C)O` [Iriflorental], the “Minimal effective concentration” value in the series on LEC is 0.03 µM. As to `CC1=CC[C@H](C)C(C)(C)[C@@H]1/C=C/C(C)=C/CC[C@@]1(CO)[C@H](CCCO)/C(=C(/C)C=O)CC[C@]1(C)O` [Iripallidal], the “Minimal effective concentration” value in the series with LEC stood at 0.03 µM. The “vessels with small, but significant increase in contraction frequency” value in series [1] (10 μM) is given as 5 out of 6; in series [1] (30 μM (data not shown)), 4 out of 4. `COc1cc(-c2coc3cc(O)c(OC)c(O)c3c2=O)cc(O)c1OC` [irigenin]: the “inhibition of cytochrome P450 1A isoenzyme” value (shortened to “inhibition”) in series [2] is reported as “potent inhibitors”.

Regarding `O=c1c(-c2ccc(O)cc2)coc2cc3c(c(O)c12)OCO3` [irilone], the “inhibition” value in series [2] is “potent inhibitors”. Regarding `C=C1CC[C@H](C)C(C)(C)[C@@H]1CC/C(C)=C/CC[C@@]1(C)[C@H](CCCO)/C(=C(/C)C=O)CC[C@]1(C)O` [γ-irigermanal], the “Minimal effective concentration” value with LEC came to 0.01 µM.

Regarding Cis isomer of α-dehydroirigermanal, the “Minimal effective concentration” value with LEC came out at 0.01 µM. Regarding Irigermanone, the “Minimal effective concentration” value with LEC stood at 10 µM. Regarding Irisgermanical C, the “Minimal effective concentration” value in the series with LEC is 1 µM. Turning to iriflogenin, in series [2], the “inhibition” value is reported as “potent inhibitors”.

(Values after patent publication US11992467B2, “Promotion of lymphatic function” (Universitaet Basel, priority 2014, dated 2024).)
